Laboratory results from patent US20090148426A1, “COMPOSITION FOR LIFE EXTENSION AND METHOD OF EXTENDING THE LIFE” (priority 2005, published 2009).

Columns and labels:
[1] = system: senescence-accelerated model mice (SAMP8); experiment: Life extending effect for a senescence-accelerated model mouse (survival rate); format: in vivo; settings: for Survival Rate (%): SAMP8 male mice, feedstuff containing 0.4% (about 300 to 500 mg/kg/day), 13th month after start of test, Kaplan-Meier, n=8 to 10; for Extension of a life span (in words): SAMP8 mice, ingestion with feedstuff containing 0.4%
From the text: In order to evaluate these life extension effects, a special senescence-accelerated model mouse (for example, SAMP8), which has a shorter lifetime than a common mouse, may be used as a model for evaluations in vivo, for example. […] This mouse is very useful model for evaluating effects over a life span. The aging states shown in this mouse extremely resembles the aging states of humans, and is also useful to evaluate the health condition of humans in a senectitude.
(§1) Three groups were set as follows. One is a group, to which feedstuff (CE-2, a product of CLEA Japan, Inc.) containing 0.4% of reduced coenzyme Q10 produced in Production Example 1 (containing about 1% by weight of oxidized coenzyme Q10) was given. Another group is a group, to which feedstuff (CE-2, a product of CLEA Japan, Inc.) containing 0.4% of commercially-available oxidized coenzyme Q10 (100% oxidized coenzyme Q10, a product of Kaneka Corporation) was given. The rest is a control group, to which only basic feedstuff (CE-2, a product of CLEA Japan, Inc.) was given. Each group consisted of 8 to 10 senescence-accelerated model mice (SAMP8, 3-week old, male). Each group was allowed free access to the feedstuff. During the test period, measurements of motor activities and recording of the number of dead mice were periodically performed. The dose of reduced and oxidized coenzyme Q10 as estimated from the feed consumption and animal body weight corresponded to about 300 to 500 mg/kg/day.
(§2) Results are illustrated in Tables 1 and 2. Table 1 illustrates the survival rates in the control group, the reduced coenzyme Q10-ingested group, and the oxidized coenzyme Q10-ingested group at the 13th month after the start of the test. Each data consists of n=8 to 10. The survival rate was assayed by the Kaplan-Meier method. The symbol “*” expresses that there is a significant difference relative to the control group at the degree of risk of 5%. Table 2 illustrates averages of motor activities (measuring apparatus: SUPERMEX, a product of Muromachi machinery) over a period from 16 o'clock to 9 o'clock in the morning of next day, and the relative proportions to the control group, estimated by assuming the level of the control group as 100. The data illustrated in Table 2 are values for each of the control group, the reduced coenzyme Q10-ingested group, and the oxidized coenzyme Q10-ingested group at the 11th month after the start of the test. Each data consist of n=4 to 7, and significant difference was tested by t-test.

[2] = system: senescence-accelerated model mice (SAMP8); experiment: Motor activities of senescence-accelerated model mice (SUPERMEX); format: in vivo, mouse; settings: for Motor activities (Count) / Motor activities, relative proportion to the control group (control = 100): feedstuff containing 0.4%, 11th month after start of test; for Motor activities (Count): average from 16 o'clock to 9 o'clock next morning, n=4 to 7; for Motor activities, relative proportion to the control group (control = 100): control group level taken as 100; for Inhibition of deterioration of the motor activity (in words): ingestion with feedstuff containing 0.4%
From the text: as §1, §2

[3] = system: rats; settings: rats bred with unsaturated fatty acid-enriched feed; cited from earlier work
[4] = system: mice; settings: cited from earlier work
[5] = system: rats; settings: every day over 52 weeks at 1,200 mg/kg/day; cited from earlier work

Compound | Survival Rate (%) [1] | Extension of a life span (in words) [1] | Motor activities (Count) [2] | Motor activities, relative proportion to the control group (control = 100) [2] | Inhibition of deterioration of the motor activity (in words) [2] | Effect on life span of rats [3] | Effect on life span of mice [4] | Toxic effect in chronic toxicity test [5]
COc1c(O)c(C)c(C/C=C(\C)CC/C=C(\C)CC/C=C(\C)CC/C=C(\C)CC/C=C(\C)CC/C=C(\C)CC/C=C(\C)CC/C=C(\C)CC/C=C(\C)CCC=C(C)C)c(O)c1OC [Reduced coenzyme Q10, reduced coenzyme Q10] | 75% | remarkable extension of a life span | 17520 Count | (163) | inhibition of deterioration of the motor activity |  |  | 
COC1=C(OC)C(=O)C(C/C=C(\C)CC/C=C(\C)CC/C=C(\C)CC/C=C(\C)CC/C=C(\C)CC/C=C(\C)CC/C=C(\C)CC/C=C(\C)CC/C=C(\C)CCC=C(C)C)=C(C)C1=O [Oxidized coenzyme Q10, oxidized coenzyme Q10] | 40% | slightly improved | 12754 Count | (119) | slightly improved |  |  | 
ubiquinone |  |  |  |  |  | extended the life span of the rat | did not affect the life span of mice | 
COC1=C(OC)C(=O)C(C/C=C(\C)CC/C=C(\C)CC/C=C(\C)CC/C=C(\C)CC/C=C(\C)CC/C=C(\C)CC/C=C(\C)CC/C=C(\C)CC/C=C(\C)CCC=C(C)C)=C(C)C1=O [coenzyme Q10] |  |  |  |  |  |  |  | no toxic effect was observed
